# Patent publication US20160264593A1 (priority 2013, published 2016)
# Test: Pharmacokinetic study of 157 (and metabolite endothal) in SD rats, iv and po; plasma, liver, brain
# Type: in vivo
# Details: for endothal detectable in brain samples: after single iv 157 at 1.5 mg/kg; for Cmax: female, rat, in vivo, iv
# Experimental: The blood, liver and brain tissue samples were collected at predetermined times from rats. […] Compound were diluted shortly before use in 4% sodium bicarbonate for sterile injection (this is the standard pediatric solution of NaHCO3 with a pH of about 8.5).
# Compound 153 was freshly prepared by diluting the drugs shortly before use in 4% sodium bicarbonate for sterile injection (this is the standard pediatric solution of NaHCO3 with a pH of about 8.5). The final concentrations of 153 solutions were 0.25 mg/mL. The 153 solutions were administered via iv or po route at dose volume of 5 ml/kg according to the latest body weight. Compound 157 was freshly prepared by diluting the drugs shortly before use in 4% sodium bicarbonate for sterile injection (this is the standard pediatric solution of NaHCO3 with a pH of about 8.5). The final concentrations of […] solutions were 0.3 mg/mL. The 157 solutions were administered via iv or po route at dose volume of 5 ml/kg according to the latest body weight.
# Twelve (12) female SD rats per group were dosed by iv with 153 or 157. The rats were fasted overnight prior to dosing, with free access to water. Foods were withheld for 2 hours post-dose. Blood, liver and brain tissue samples in two animals each group were collected at each time point, within 10% of the scheduled time for each time point. Two extra animals were used for analytic method development.
# Blood (>0.3 mL) were collected via aorta abdominalis in anaesthetic animals into tubes containing heparin at 15 min, 1, 2, 6, 10 and 24 hours after iv administration. Liver and brain tissues were collected immediately after animal death. The liver and brain tissues were excised and rinsed with cold saline to avoid blood residual. Upon collection, each sample was placed on ice and the blood samples were subsequently centrifuged (4° C., 11000 rpm, 5 min) to separate plasma. The obtained plasma, liver and brain tissue samples were stored at −70° C. until LC-MS/MS analysis.
# Two (2) female SD rats per group were dosed by po with 153 or 157. The rats were fasted overnight prior to dosing, with free access to water. Foods were withheld for 2 hours post-dose. Blood samples (>0.3 mL) were collected via aorta abdominalis in anaesthetic animals into tubes containing heparin at 30 min, 1, 2, 6, 10 and 24 hours after po administration.
# To each sample, 30 μL IS-D (for blank samples, 20 μL acetonitrile:water (1:1) was added) and 300 μl acetonitrile was added. The sample mixture was vortexed for approximately 3 min. After centrifugation at 10000 rpm for 5 min at 4° C., 100 μL of the upper layer was transferred to a new tube and added 200 μL 0.4% formic acid in water (pH6.0). The mixture was vortexed for approximately 3 min before injected onto the LC/MS/MS system for analysis.
# On the day of the assay, the frozen liver and brain samples were thawed unassisted at room temperature. An about 200 mg weighed sample of each thawed tissue was placed into a plastic tube with water (0.6 mL) to facilitate homogenization. Tissue processing was conducted using a homogenizer for approximately 1 min, 100 μl homogenate was transferred into a fresh Eppendorf tube. To each tube, 50 μL IS-D was added and mixed. Then 500 μl acetonitrile was added and the sample mixture was vortexed for approximately 3 min. After centrifugation at 10000 rpm for 5 min at 4° C., 100 μL of the upper layer was transferred to a new tube and evaporate the supernatant to dryness at 35° C. Reconstitute the residue with 200 μL of 0.4% formic acid in water (pH 6.0), and vortex for 3 min, submit for LC-MS/MS analysis.
# Frozen unknown plasma samples were completely thawed at room temperature and vortexed thoroughly. With a pipette, 50 μL of plasma was transferred into a 2.0 mL Eppendorf tube. 50 μL of 0.1N HCl and 800 μL ethyl acetate were added into each sample. The sample mixture was vortexed for approximately 3 min.
compound,measurement,setting,value
"O=C(O)C1C2CCC(O2)C1C(=O)O (stereo not shown) [Endothal, 7-oxabicyclo[2.2.1]heptane-2,3-dicarboxylic acid]",Endothal plasma concentration,"after iv 157, 10 hr, Rat 1",BLQ
same,Endothal plasma concentration,"after iv 157, 10 hr, Rat 2",BLQ
same,Endothal plasma concentration,"after iv 157, 24 hr, Rat 1",BLQ
same,Endothal plasma concentration,"after iv 157, 24 hr, Rat 2",BLQ
same,Endothal plasma concentration,"after po 157, 10 hr, Rat 1",BLQ
same,Endothal plasma concentration,"after po 157, 10 hr, Rat 2",BLQ
same,endothal detectable in brain samples,1.5 mg/kg,undetectable
same,endothal detectable in brain samples,"listed as endothal, 1.5 mg/kg",not detectable
same,Cmax,"SD, 1.5 mg/kg",3720 ng/g
same,Cmax,Sprague-Dawley (SD),3720 ng/g
